Measurements taken from US7253155B2, “Combinations for the treatment of immunoinflammatory disorders” (CombinatoRx, Inc., priority 2001, dated 2007).
“And” between values parts separate entries of the source, which are not always exact repeats. Equal values may be shown once.

Tested on: TNFα secretion
Experiment: TNFα ELISA assay for TNFα suppressing activity in PMA/ionomycin-stimulated human white blood cells (pairwise combination dilution matrix)
Type: cell-based
Protocol: Stock solutions at 16 mg/ml of dipyridamole, and 1.6 mg/ml of fludrocortisone acetate (Sigma-Aldrich, St. Louis, Mo.; catalog numbers D9766 and F6127, respectively) were made in dimethylsulfoxide (DMSO). The dipyridamole master plates were made by adding 25 μl of the concentrated stock solution to columns 3, 9, and 15 (rows C through N) of a polypropylene 384-well storage plate that had been pre-filled with 75 μl of anhydrous DMSO. Using a TomTec Quadra Plus liquid handler, the 25 μl of dipyridamole stock solution was serially diluted four times into the adjacent columns (columns 4-7, 10-13, 16-19). […] The fludrocortisone master plates were made by adding 25 μl of the concentrated stock solution to the appropriate wells (row C, columns 3-8; row C, columns 9-14; row C, columns 15-20; row I, columns 3-8; row I, columns 9-14; row I, columns 15-20) of the appropriate master polypropylene 384-well storage plate. These master plates had been pre-filled with 75 μl of anhydrous DMSO. Using the TomTec Quadra Plus liquid handler, the 25 μl was serially diluted four times in the adjacent rows (rows D-G, and J-M). […] Master plates were sealed and stored at −20 C. until ready for use.
The final dipyridamole/fludrocortisone combination plates were generated by transferring 1 μl from each of the dipyridamole and fludrocortisone master plates to a dilution plate containing 100 μl of media (RPMI; Gibco BRL, #11875-085), 10% Fetal Bovine Serum (Gibco BRL, #25140-097), 2% Penicillin/Streptomycin (Gibco BRL, #15140-122)) using the TomTec Quadra Plus liquid handler. This dilution plate was then mixed and a 10 μl aliquot transferred to the final assay plate, which had been pre-filled with 40 μl/well RPMI media containing the appropriate stimulant to activate TNFα secretion (see below).
The compound dilution matrix was assayed using a TNFα ELISA method. Briefly, a 100 μl suspension of diluted human white blood cells contained within each well of a polystyrene 384-well plate (NalgeNunc) was stimulated to secrete TNFα by treatment with a final concentration of 10 ng/ml phorbol 12-myristate 13-acetate (Sigma) and […] ionomycin (Sigma). Various concentrations of each test compound were added at the time of stimulation. After 16-18 hours of incubation at 37° C. in a humidified incubator, the plate was centrifuged and the supernatant transferred to a white opaque polystyrene 384 well plate (NalgeNunc, Maxisorb) coated with an anti-TNF antibody (PharMingen, #18631D). After a two-hour incubation, the plate was washed (Tecan PowerWasher 384) with phosphate buffered saline (PBS) containing 0.1% Tween 20 (polyoxyethylene sorbitan monolaurate) and incubated for an additional one hour with another anti-TNF antibody that was biotin labeled (PharMingen, 18642D) and horseradish peroxidase (HRP) coupled to strepavidin (PharMingen, #13047E). After the plate was washed with 0.1% Tween 20/PBS, the HRP substrate (which contains luminol, hydrogen peroxide, and an enhancer such as para-iodophenol) was added to each well and light intensity measured using a LJL Analyst luminometer. Control wells contained a final concentration of 1 μg/ml cyclosporin A (Sigma).
A compound matrix of dipyridamole and prednisolone were prepared according to the method of Example 1. The initial stock solution of dipyridamole was 16 mg/ml, and prednisolone was 1.6 mg/ml.
The compound dilution matrix of Example 3, was assayed using the TNFα ELISA method of Example 2.

C[C@]12C=CC(=O)C=C1CC[C@@H]1[C@@H]2[C@@H](O)C[C@@]2(C)[C@H]1CC[C@]2(O)C(=O)CO [Prednisolone, 11beta,17alpha,21-trihydroxy-1,4-pregnadiene-3,20-dione]
% TNFα suppression from P/I-induced white blood cells (primary screen, prednisolone 0.001 μM, dipyridamole 0.00 μM): 4.86% | % TNFα suppression from P/I-induced white blood cells (primary screen, prednisolone 0.004 μM, dipyridamole 0.00 μM): 19.99% | % TNFα suppression from P/I-induced white blood cells (primary screen, prednisolone 0.016 μM, dipyridamole 0.00 μM): 37.84% | % TNFα suppression from P/I-induced white blood cells (primary screen, prednisolone 0.063 μM, dipyridamole 0.00 μM): 33.00% | % TNFα suppression from P/I-induced white blood cells (primary screen, prednisolone 0.250 μM, dipyridamole 0.00 μM): 38% and 38.25%

OCCN(CCO)c1nc(N2CCCCC2)c2nc(N(CCO)CCO)nc(N3CCCCC3)c2n1 [Dipyridamole, 2,6-bis(diethanolamino)-4,8-dipiperidinopyrimido(5,4-d)pyrimidine]
% TNFα suppression from P/I-induced white blood cells (primary screen, fludrocortisone 0.000 μM, dipyridamole 0.031 μM): 3.68% | % TNFα suppression from P/I-induced white blood cells (primary screen, fludrocortisone 0.000 μM, dipyridamole 0.124 μM): 9.08% | % TNFα suppression from P/I-induced white blood cells (primary screen, fludrocortisone 0.000 μM, dipyridamole 0.495 μM): 13.21% | % TNFα suppression from P/I-induced white blood cells (primary screen, fludrocortisone 0.000 μM, dipyridamole 1.982 μM): 35.24% | % TNFα suppression from P/I-induced white blood cells (primary screen, fludrocortisone 0.000 μM, dipyridamole 7.927 μM): 66.37% | % TNFα suppression from P/I-induced white blood cells (primary screen, prednisolone 0.000 μM, dipyridamole 0.031 μM): 11.24% | % TNFα suppression from P/I-induced white blood cells (primary screen, prednisolone 0.000 μM, dipyridamole 0.12 μM): 12.63% | % TNFα suppression from P/I-induced white blood cells (primary screen, prednisolone 0.000 μM, dipyridamole 0.50 μM): 18.30% | % TNFα suppression from P/I-induced white blood cells (primary screen, prednisolone 0.000 μM, dipyridamole 1.98 μM): 27.21% | % TNFα suppression from P/I-induced white blood cells (primary screen, prednisolone 0.000 μM, dipyridamole 7.93 μM): 47.51% | % TNFα suppression from P/I-induced white blood cells (secondary screen, fludrocortisone 0.000 μM, dipyridamole 0.031 μM): 10.16% | % TNFα suppression from P/I-induced white blood cells (secondary screen, fludrocortisone 0.000 μM, dipyridamole 0.062 μM): 9.43% | % TNFα suppression from P/I-induced white blood cells (secondary screen, fludrocortisone 0.000 μM, dipyridamole 0.124 μM): 12.13% | % TNFα suppression from P/I-induced white blood cells (secondary screen, fludrocortisone 0.000 μM, dipyridamole 0.248 μM): 23.02% | % TNFα suppression from P/I-induced white blood cells (secondary screen, fludrocortisone 0.000 μM, dipyridamole 0.495 μM): 33.73% | % TNFα suppression from P/I-induced white blood cells (secondary screen, fludrocortisone 0.000 μM, dipyridamole 0.991 μM): 48.20% | % TNFα suppression from P/I-induced white blood cells (secondary screen, fludrocortisone 0.000 μM, dipyridamole 1.982 μM): 62.36% | % TNFα suppression from P/I-induced white blood cells (secondary screen, fludrocortisone 0.000 μM, dipyridamole 3.964 μM): 66.54% | % TNFα suppression from P/I-induced white blood cells (secondary screen, fludrocortisone 0.000 μM, dipyridamole 7.927 μM): 78.11%
